Experimental data as given in patent US20260285853A1, “COMPOUNDS AND METHODS FOR MODULATING SPLICING” (REMIX THERAPEUTICS INC., priority 2023, published 2026).
Where two headings read alike, the source gives them in different places.

Columns and labels:
Type in all cases: cell-based
[1] = test system: SMN2 mRNA; test: Gene panel canonical junction qPCR assay, decrease in CJ mRNA, Table 3; conditions: decrease in canonical junction (CJ) mRNA, gene panel qPCR, Table 3
How it was run: (§1)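 Canonical exon-junction (CJ) transcript measured by 5′ nuclease RT-qPCR, normalized to GAPDH, GUSB or PPIA and to DMSO control (2^(−ΔΔCt)). A673 or K562 cells treated 24 h at 37° C with an 11-point 3-fold dilution series, top 10 uM, DMSO ≤0.25%. IC50 from 4-parameter logistic fit of percentage CJ decrease.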

[2] = test system: HTT mRNA; test: as above
How it was run: as §1

[3] = test system: MYB mRNA; test: as above
How it was run: as §1

[4] = test system: SH-SY5Y (human neuroblastoma) cells; test: Cell viability, Cell Titer Glo 2.0 assay; conditions: read-out: Viability SHSY5Y.3 GI50
How it was run: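 SH-SY5Y cells were exposed to serially diluted compounds in IMDM with 10% FBS and 0.1% DMSO for 72 hours at 37° C., 5% CO2. Viability was measured by CellTiter-Glo 2.0 luminescence, with medium-only wells as blank.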

[5] = test system: MYB mRNA; test: Splicing RT-qPCR assay (THP), Table 2A
[6] = test system: HTT mRNA; test: Splicing RT-qPCR assay (THP), Table 2A
[7] = decrease in canonical junction (CJ) mRNA, gene panel qPCR, Table 3
[8] = Table 2A (THP), AJ mRNA increase, read-out: MYB AJ (increase in alternative junction mRNA, AC50)
[9] = Table 2A (THP), CJ mRNA decrease, read-out: MYB CJ (decrease in canonical junction mRNA, IC50)
[10] = Table 2A (THP), AJ mRNA increase, read-out: HTT AJ (increase in alternative junction mRNA, AC50)
[11] = Table 2A (THP), CJ mRNA decrease, read-out: HTT CJ (decrease in canonical junction mRNA, IC50)
[12] = decrease in CJ mRNA levels, canonical junction qPCR, gene panel
[13] = Table 2A, THP, MYB alternative junction (AJ) mRNA, read-out: MYB AJ (AC50, increase in alternative junction mRNA)
[14] = Table 2A, THP, MYB canonical junction (CJ) mRNA, read-out: MYB CJ (IC50, decrease in canonical junction mRNA)
[15] = Table 2A, THP, HTT alternative junction (AJ) mRNA, read-out: HTT AJ (AC50, increase in alternative junction mRNA)
[16] = Table 2A, THP, HTT canonical junction (CJ) mRNA, read-out: HTT CJ (IC50, decrease in canonical junction mRNA)

CCNC1CCN(c2cc(F)c(C(=O)Nc3cc(F)c4nc(C)n(C)c4c3)c3nn(C)cc23)CC1 [Compound 299, 4-[4-(ethylamino)-1-piperidyl]-6-fluoro-N-(7-fluoro-2,3-dimethyl-benzimidazol-5-yl)-2-methyl-indazole-7-carboxamide]
> 10 µM: IC50 [1] | IC50 [2, 7] | IC50 [3, 7] | GI50 [4] | AC50 [5, 8] | IC50 [5, 9] | AC50 [6, 10] | IC50 [6, 11]

Cc1cn2cc(NC(=O)c3ccc(N4CC(CNC5CC5)C4)c4cn(C)nc34)cc(F)c2n1 [Compound 298, 4-[3-[(cyclopropylamino)-methyl]azetidin-1-yl]-N-(8-fluoro-2-methylimidazo[1,2-a]pyridin-6-yl)-2-methylindazole-7-carboxamide]
< 0.1 µM: IC50 [1]
1 to 10 µM: IC50 [2, 7] | GI50 [4] | AC50 [6, 10] | IC50 [6, 11]
0.1 to 1 µM: IC50 [3, 7] | AC50 [5, 8] | IC50 [5, 9]

CCNC1CCN(c2cc(F)c(C(=O)Nc3cn4cc(C5CC5)nc4c(F)c3OC)c3nn(C)cc23)CC1 [Compound 304, N-(2-cyclopropyl-8-fluoro-7-methoxyimidazo [1,2-a]pyridin-6-yl)-4-[4-(ethylamino)-piperidin-1-yl]-6-fluoro-2-methylindazole-7-carboxamide]
> 10 µM: IC50 [2, 7] | IC50 [3, 7] | AC50 [5, 8] | IC50 [5, 9] | AC50 [6, 10] | IC50 [6, 11]
0.1 to 1 µM: IC50 [1]
1 to 10 µM: GI50 [4]

CCNC1CCN(c2ccc(C(=O)Nc3cc(C#N)c4nc(C)cn4c3)c3nn(C)cc23)CC1 [Compound 307, N-(8-cyano-2-methyl-imidazo[1,2-a]pyridin-6-yl)-4-[4-(ethylamino)-1-piperidyl]-2-methyl-indazole-7-carboxamide]
< 0.1 µM: IC50 [1]
0.1 to 1 µM: IC50 [3, 7] | AC50 [5, 8] | IC50 [5, 9]
1 to 10 µM: IC50 [2, 7] | GI50 [4] | AC50 [6, 10] | IC50 [6, 11]

CCNC1CCN(c2cc(F)c(C(=O)Nc3cn4c(Cl)c(C)nc4c(F)c3OC)c3nn(C)cc23)CC1 [Compound 308, N-(3-chloro-8-fluoro-7-methoxy-2-methyl-imidazo [1,2-a]pyridin-6-yl)-4-[4-(ethylamino)-1-piperidyl]-6-fluoro-2-methyl-indazole-7-carboxamide]
0.1 to 1 µM: IC50 [1]
> 10 µM: IC50 [2, 7] | IC50 [3, 7] | AC50 [5, 8] | IC50 [5, 9] | AC50 [6, 10] | IC50 [6, 11]
1 to 10 µM: GI50 [4]

CCNC1CCN(c2ccc(C(=O)Nc3cn4cc(C5CC5)nc(C)c4n3)c3nn(C)cc23)CC1 [Compound 309, N-(6-cyclopropyl-8-methylimidazo[1,2-a]-pyrazin-2-yl)-4-[4-(ethylamino)-1-piperidyl]-2-methyl-indazole-7-carboxamide]
> 10 µM: IC50 [1] | IC50 [2, 7] | IC50 [3, 7] | GI50 [4] | AC50 [5, 8] | IC50 [5, 9] | AC50 [6, 10] | IC50 [6, 11]

CCNC1CCN(c2cc(F)c(C(=O)Nc3cc4c(C)nc(C)cn4n3)c3nn(C)cc23)CC1 [Compound 302, N-(4,6-dimethylpyrazolo [1,5-a]pyrazin-2-yl)-4-[4-(ethylamino)-1-piperidyl]-6-fluoro-2-methyl-indazole-7-carboxamide]
> 10 µM: IC50 [1] | IC50 [2, 7] | IC50 [3, 7] | GI50 [4] | AC50 [5, 8] | IC50 [5, 9] | AC50 [6, 10] | IC50 [6, 11]

CCNC1CCN(c2cc(F)c(C(=O)Nc3cc(F)c4cn(C)nc4c3)c3nn(C)cc23)CC1 [Compound 300, 4-[4-(ethylamino)-1-piperidyl]-6-fluoro-N-(4-fluoro-2-methylindazol-6-yl)-2-methyl-indazole-7-carboxamide]
1 to 10 µM: IC50 [1] | GI50 [4]
> 10 µM: IC50 [2, 7] | IC50 [3, 7] | AC50 [5, 8] | IC50 [5, 9] | AC50 [6, 10] | IC50 [6, 11]

CCNC1CCN(c2ccc(C(=O)Nc3cc(F)c4cnccc4c3)c3nn(C)cc23)CC1 [Compound 303, 4-[4-(ethylamino)-1-piperidyl]-N-(8-fluoro-6-isoquinolyl)-2-methylindazole-7-carboxamide]
1 to 10 µM: GI50 [4]
> 10 µM: IC50 [1] | IC50 [2, 7] | IC50 [3, 7] | AC50 [5, 8] | IC50 [5, 9] | AC50 [6, 10] | IC50 [6, 11]

CCNC1CCN(c2cc(F)c(C(=O)Nc3nc4c(C)nc(C)cn4n3)c3nn(C)cc23)CC1 [Compound 301, N-(6,8-dimethyl-[1,2,4]triazolo[1,5-a]pyrazin-2-yl)-4-(4-(ethylamino)piperidin-1-yl)-6-fluoro-2-methyl-2H-indazole-7-carboxamide 2,2,2-trifluoroacetate]
> 10 µM: IC50 [3, 7] | GI50 [4] | AC50 [5, 8] | IC50 [5, 9] | AC50 [6, 10]
1 to 10 µM: IC50 [1] | IC50 [2, 7] | IC50 [6, 11]

CCNC1CCN(c2cc(F)c(C(=O)Nc3cn4c(C)c(C)nc4c(F)c3OC)c3nn(C)cc23)CC1 [Compound 305, 4-[4-(ethylamino)piperidin-1-yl]-6-fluoro-N-(8-fluoro-7-methoxy-2,3-dimethyl-imidazo[1,2-a]pyridin-6-yl)-2-methylindazole-7-carboxamide]
> 10 µM: IC50 [1] | IC50 [2, 7] | IC50 [3, 7] | GI50 [4] | AC50 [5, 8] | IC50 [5, 9] | AC50 [6, 10] | IC50 [6, 11]

CCNC1CCN(c2cc(F)c(C(=O)Nc3cn4cc(C)nc(C)c4n3)c3nn(C)cc23)CC1 [Compound 306, N-(6,8-dimethylimidazo[1,2-a]pyrazin-2-yl)-4-(4-(ethylamino)-piperidin-1-y1)-6-fluoro-2-methyl-2H-indazole-7-carboxamide 2,2,2-trifluoroacetate]
1 to 10 µM: GI50 [4] | AC50 [6, 10]
> 10 µM: IC50 [2, 7] | IC50 [6, 11]
< 0.1 µM: IC50 [1] | IC50 [3, 7] | AC50 [5, 8] | IC50 [5, 9]

COc1cc2nn(C)cc2cc1NC(=O)c1ccc(N2CC3(CCNCC3)C2)c2cn(C)nc12 [Compound 507]
0.1 to 1 µM: AC50 [5, 8]
1 to 10 µM: IC50 [2, 7] | IC50 [3, 7] | GI50 [4] | IC50 [5, 9] | AC50 [6, 10] | IC50 [6, 11]

COc1cc2c(N3CCC(NC4CC4)CC3)ccc(C(=O)Nc3cc(CO)c4nn(C)cc4c3)n2n1 [Compound 847]
0.1 to 1 µM: IC50 [2, 12] | GI50 [4] | AC50 [6, 15] | IC50 [6, 16]
< 0.1 µM: IC50 [3, 12] | AC50 [5, 13] | IC50 [5, 14]

COc1nc2c(C(=O)Nc3cc(F)c4nn(C)cc4c3)ccc(N3CCN(C)CC3)c2s1 [Compound 789]
< 0.1 µM: IC50 [3, 12] | AC50 [5, 13] | IC50 [5, 14]
0.1 to 1 µM: IC50 [2, 12] | GI50 [4] | AC50 [6, 15] | IC50 [6, 16]

Cc1cn2cc(NC(=O)c3c(F)cc(N4CCC(NC5CC5)CC4)c4cn(C)nc34)nc2c(CN)n1 [Compound 392, N-[8-(aminomethyl)-6-methyl-imidazo[1,2-a]-pyrazin-2-yl]-4-[4-(cyclopropylamino)-1-piperidyl]-6-fluoro-2-methyl-indazole-7-carboxamide]
1 to 10 µM: IC50 [3, 7] | AC50 [5, 8] | IC50 [5, 9]
> 10 µM: IC50 [2, 7] | GI50 [4] | AC50 [6, 10] | IC50 [6, 11]
